Results reported in patent US11098062B2, “Monocyclic and bicyclic ring system substituted carbanucleoside analogues for use as PRMT5 inhibitors” (Janssen Pharmaceutica NV, priority 2016, dated 2021).

What follows are molecules tested against T1, PRMT5-MEP50 enzyme (Homo sapiens, UniProt O14744) (assay: In vitro assay 1b: PRMT5-MEP50 high throughput mass spectrometer assay (SAH formation), 1.25 nM enzyme). Conditions: 1.25 nM enzyme, 1 μM SAM, 0.3 μM H2A, 30° C., 120 min; averaged values; read-out: pIC50 Assay 1b (converted).
T1 construct: One virus expresses full length human PRMT5 with Flag-tag at N-terminus; Flag (N); purchased Charles River (Argenta); host or cells: insect cells (Sf9), baculovirus co-infection
T1 sequence (O14744 whole entry): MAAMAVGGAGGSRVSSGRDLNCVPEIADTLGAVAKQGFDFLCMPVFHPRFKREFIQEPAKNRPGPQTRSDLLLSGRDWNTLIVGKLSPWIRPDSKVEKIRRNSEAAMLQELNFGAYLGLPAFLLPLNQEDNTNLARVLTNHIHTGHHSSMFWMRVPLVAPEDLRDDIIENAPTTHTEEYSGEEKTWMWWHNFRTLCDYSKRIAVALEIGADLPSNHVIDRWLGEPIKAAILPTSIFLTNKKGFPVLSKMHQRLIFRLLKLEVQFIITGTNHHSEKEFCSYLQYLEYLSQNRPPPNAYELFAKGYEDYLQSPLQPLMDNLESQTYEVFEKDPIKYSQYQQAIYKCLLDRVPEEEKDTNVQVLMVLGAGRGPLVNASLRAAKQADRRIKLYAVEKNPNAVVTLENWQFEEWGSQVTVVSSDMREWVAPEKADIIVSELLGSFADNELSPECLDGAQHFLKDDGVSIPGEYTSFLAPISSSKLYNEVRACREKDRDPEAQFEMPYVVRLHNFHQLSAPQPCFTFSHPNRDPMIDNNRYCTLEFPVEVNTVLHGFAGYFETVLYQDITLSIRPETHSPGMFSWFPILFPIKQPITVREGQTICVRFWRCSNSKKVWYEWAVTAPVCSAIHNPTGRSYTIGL
T1 sequence (Q9BQA1 whole entry partner): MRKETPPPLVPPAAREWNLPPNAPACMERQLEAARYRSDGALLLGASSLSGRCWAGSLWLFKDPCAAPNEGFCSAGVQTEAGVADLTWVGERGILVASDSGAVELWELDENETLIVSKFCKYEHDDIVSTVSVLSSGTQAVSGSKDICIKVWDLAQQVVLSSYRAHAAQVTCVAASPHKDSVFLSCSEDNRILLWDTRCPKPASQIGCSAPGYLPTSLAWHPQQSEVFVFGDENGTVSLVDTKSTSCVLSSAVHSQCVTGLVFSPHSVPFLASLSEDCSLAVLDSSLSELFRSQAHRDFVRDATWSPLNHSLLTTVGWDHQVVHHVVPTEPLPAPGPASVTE
Format: biochemical
Excerpt: Experimental Procedures In Vitro Assay (Assay 1a and 1b)
PRMT5-MEP50 enzyme was purchased from Charles River (Argenta). The enzyme complex was produced in insect cells (Sf9) infected simultaneously with two baculoviruses. One virus expresses full length human PRMT5 with Flag-tag at N-terminus, the second virus expresses full length MEP50 with His6-TEV cleavage at N-terminus. The protein was affinity purified using anti-Flag (M2) beads eluted with 3×FLAG peptide, followed by His-Select eluted with 0.5M imidazole. Eluted protein was then dialysed against tris-buffered saline (TBS) (pH 8.0) containing 20% glycerol and 3 mM dithiothreitol (DTT).
Full-length untagged human recombinant histone H2A (residues 1-130, Genbank Accession #NM_021052, MW=14.1 kDa) expressed in E. coli was purchased from Reaction Biology Corporation, Cat #HMT-11-146. Reagents used for making reaction buffer or stopping reaction were purchased including Tris base (Sigma Cat #T-1503), NaCl (Sigma Cat #RGF-3270), MgCl2 (Sigma Cat #M0250), DTT (Invitrogen Cat #15508-013) and Formic Acid (Riedel deHaen, Cat #33015)
PRMT5 catalyzes the sequential methylations of the terminal nitrogen atoms on the guanidine groups of arginine residues within proteins using co-substrate S-adenosyl-L-methionine (AdoMet, SAM), forming mono-methyl (MMA), syrmmetric-dimethyl arginine (sDMA) and S-adenosyl-L-homocysteine (AdoHcy, SAH). The enzyme activity was determined by following the product SAH formation using high throughput mass spectrometry (Agilent Rapidfire 300 System coupled to a Sciex 4000 series QTrap® triple-quad MS/MS). The reaction buffer was 20 mM Tris-HCl, pH 8.5, 50 mM NaCl, 5 mM MgCl2 and 1 mM DTT. The reaction activity was stopped using 1% formic acid (final concentration).
The IC50 Studies were performed using eleven point dosing series made for each compound by serially diluted 1:2 in dimethyl sulfoxide (DMSO), with point 12 being a DMSO control. Compounds were first spotted to plates, and followed by addition of 2 μM SAM and 0.6 μM H2A (histone H2A) solution mixture. The same volume of enzyme solution was added to initiate the enzymatic reactions. The final concentrations of the reaction are at 1 μM SAM, 0.3 μM H2A and 10 nM enzyme (assay 1a) or or 1.25 nM enzyme (assay 1b). The reaction was incubated at 30° C. for 60 minutes (min) when 10 nM enzyme was used and for 120 min when 1.25 nM enzyme was used. Subsequently, the reaction was quenched by addition of formic acid to a final concentration of 1%. The inhibitions of SAH formation in the presence of compounds were calculated as a percentage of the control relative to the uninhibited reaction as a function of inhibitor concentration. The data were fit as follows: Y=Bottom+(Top−Bottom)/(1+10^((log IC50−X)*h))
where IC50 is the inhibitor concentration (same unit as X) at 50% inhibition and h is the Hill slope. Y is percent of inhibition, X is log of compound concentration. Bottom and Top are the plateaus in same units as Y.

**Q.** `Nc1ncnc2c1ccn2[C@@H]1C[C@H](CCc2ccn3cc(C(F)(F)F)nc3c2)[C@@H](O)[C@H]1O` [Compound 23] was tested. Which IC50 did it give?
**A.** 39.8 nM

**Q.** For `CC(=O)Nc1cn2ccc(CC[C@H]3C[C@@H](n4ccc5c(N)ncnc54)[C@H](O)[C@@H]3O)cc2n1` [Compound 31], which IC50 is on record?
**A.** 63.1 nM

**Q.** How did the IC50 turn out when `Cc1cn2ccc(OC[C@H]3C[C@@H](n4ccc5c(N)ncnc54)[C@H](O)[C@@H]3O)cc2n1` [Compound 33] was run?
**A.** 5.01 nM

**Q.** `Nc1cc(/C=C/[C@H]2C[C@@H](n3ccc4c(N)ncnc43)[C@H](O)[C@@H]2O)ccn1` [Compound 36] was tested. Which IC50 did it give?
**A.** 2000 nM

**Q.** How did the IC50 turn out when `Nc1cccc(/C=C/[C@H]2C[C@@H](n3ccc4c(N)ncnc43)[C@H](O)[C@@H]2O)n1` [Compound 37] was run?
**A.** 794 nM

**Q.** For `Cn1cncc1CC[C@H]1C[C@@H](n2ccc3c(N)ncnc32)[C@H](O)[C@@H]1O` [Compound 38], which IC50 is on record?
**A.** 794 nM

**Q.** `CC(c1cncn1C)[C@H]1C[C@@H](n2ccc3c(N)ncnc32)[C@H](O)[C@@H]1O` (stereo partly drawn) [Compound 39] was tested. Which IC50 did it give?
**A.** 2000 nM

**Q.** With `Nc1cccc(CCC[C@H]2C[C@@H](n3ccc4c(N)ncnc43)[C@H](O)[C@@H]2O)n1` [Compound 40] as the molecule, how does the IC50 read?
**A.** 79.4 nM

**Q.** For `Nc1cc2cccc(CCC[C@H]3C[C@@H](n4ccc5c(N)ncnc54)[C@H](O)[C@@H]3O)c2cn1` [Compound 41], which IC50 is on record?
**A.** 398 nM

**Q.** How did the IC50 turn out when `Nc1ncnc2c1ccn2[C@@H]1C[C@H](CCCc2cccnc2)[C@@H](O)[C@H]1O` [Compound 42] was run?
**A.** 316 nM

**Q.** For `Nc1ncnc2c1ccn2[C@@H]1C[C@H](CCCc2cnc3ccccc3c2)[C@@H](O)[C@H]1O` [Compound 43], which IC50 is on record?
**A.** 251 nM

**Q.** For `Nc1ncnc2c1ccn2[C@@H]1C[C@H](CCCc2cnc3c(N)cccc3c2)[C@@H](O)[C@H]1O` [Compound 44], which IC50 is on record?
**A.** 1580 nM

**Q.** How did the IC50 turn out when `Nc1cc(CCC[C@H]2C[C@@H](n3ccc4c(N)ncnc43)[C@H](O)[C@@H]2O)ccn1` [Compound 45] was run?
**A.** 501 nM

**Q.** With `Nc1ncnc2c1ccn2[C@@H]1C[C@H](CCCc2ccccn2)[C@@H](O)[C@H]1O` [Compound 46] as the molecule, how does the IC50 read?
**A.** > 2510 nM

**Q.** How did the IC50 turn out when `Nc1ncnc2c1ccn2[C@@H]1C[C@H](CCCc2ccc3cccnc3c2)[C@@H](O)[C@H]1O` [Compound 47] was run?
**A.** 1580 nM

**Q.** `Nc1ncnc2c1ccn2[C@@H]1C[C@H](CCCc2ccn3ccnc3c2)[C@@H](O)[C@H]1O` [Compound 48] was tested. Which IC50 did it give?
**A.** 31.6 nM

**Q.** Which IC50 does the source give for `Nc1ncnc2c1ccn2[C@@H]1C[C@H](CCCc2ccncc2)[C@@H](O)[C@H]1O` [Compound 49] here?
**A.** > 2510 nM

**Q.** How did the IC50 turn out when `Nc1ccc2cccc(CCC[C@H]3C[C@@H](n4ccc5c(N)ncnc54)[C@H](O)[C@@H]3O)c2n1` [Compound 50] was run?
**A.** 31.6 nM

**Q.** `Nc1ncnc2c1ccn2[C@@H]1C[C@H](CCCc2cccc3ccncc23)[C@@H](O)[C@H]1O` [Compound 51] was tested. Which IC50 did it give?
**A.** 316 nM

**Q.** For `Nc1ncnc2c1ccn2[C@@H]1C[C@H](CCCc2cccc3cccnc23)[C@@H](O)[C@H]1O` [Compound 52], which IC50 is on record?
**A.** > 2510 nM

**Q.** `Nc1ccc(CCC[C@H]2C[C@@H](n3ccc4c(N)ncnc43)[C@H](O)[C@@H]2O)cn1` [Compound 53] was tested. Which IC50 did it give?
**A.** 2 nM

**Q.** Which IC50 does the source give for `Nc1cc2cccc(CCCC[C@H]3C[C@@H](n4ccc5c(N)ncnc54)[C@H](O)[C@@H]3O)c2cn1` [Compound 54] here?
**A.** 100 nM

**Q.** For `Nc1cccc(CCCC[C@H]2C[C@@H](n3ccc4c(N)ncnc43)[C@H](O)[C@@H]2O)n1` [Compound 55], which IC50 is on record?
**A.** 0.398 nM

**Q.** How did the IC50 turn out when `Nc1ccc(CCCC[C@H]2C[C@@H](n3ccc4c(N)ncnc43)[C@H](O)[C@@H]2O)cn1` [Compound 56] was run?
**A.** 7.94 nM

**Q.** `Nc1cc(CCCC[C@H]2C[C@@H](n3ccc4c(N)ncnc43)[C@H](O)[C@@H]2O)ccn1` [Compound 57] was tested. Which IC50 did it give?
**A.** 79.4 nM

**Q.** How did the IC50 turn out when `Nc1ncnc2c1ccn2[C@@H]1C[C@H](CCCCc2cccc3cccnc23)[C@@H](O)[C@H]1O` [Compound 58] was run?
**A.** > 2510 nM

**Q.** Which IC50 does the source give for `Nc1ncnc2c1ccn2[C@@H]1C[C@H](CCCCc2cnc3c(N)cccc3c2)[C@@H](O)[C@H]1O` [Compound 59] here?
**A.** 2000 nM

**Q.** How did the IC50 turn out when `Nc1ncnc2c1ccn2[C@@H]1C[C@H](CCCCc2ccc3cccnc3c2)[C@@H](O)[C@H]1O` [Compound 60] was run?
**A.** 251 nM

**Q.** For `Nc1ncnc2c1ccn2[C@@H]1C[C@H](CCCCc2ccn3ccnc3c2)[C@@H](O)[C@H]1O` [Compound 61], which IC50 is on record?
**A.** 7.94 nM

**Q.** Which IC50 does the source give for `Nc1ncnc2c1ccn2[C@@H]1C[C@H](CCCCc2cnc3ccccc3c2)[C@@H](O)[C@H]1O` [Compound 62] here?
**A.** 794 nM

**Q.** How did the IC50 turn out when `Nc1ncnc2c1ccn2[C@@H]1C[C@H](CCCCc2ccncc2)[C@@H](O)[C@H]1O` [Compound 63] was run?
**A.** 2000 nM

**Q.** Which IC50 does the source give for `Nc1ncnc2c1ccn2[C@@H]1C[C@H](CCCCc2ccccn2)[C@@H](O)[C@H]1O` [Compound 64] here?
**A.** 100 nM

**Q.** For `Nc1ccc2cccc(CCCC[C@H]3C[C@@H](n4ccc5c(N)ncnc54)[C@H](O)[C@@H]3O)c2n1` [Compound 65], which IC50 is on record?
**A.** 10 nM

**Q.** How did the IC50 turn out when `Nc1ncnc2c1ccn2[C@@H]1C[C@H](CCCCc2cccc3ccncc23)[C@@H](O)[C@H]1O` [Compound 66] was run?
**A.** 39.8 nM

**Q.** `Nc1ncnc2c1ccn2[C@@H]1C[C@H](CCc2cccnc2)[C@@H](O)[C@H]1O` [Compound 67] was tested. Which IC50 did it give?
**A.** 501 nM

**Q.** How did the IC50 turn out when `Nc1ncnc2c1ccn2[C@@H]1C[C@H](CCc2cn[nH]c2)[C@@H](O)[C@H]1O` [Compound 68] was run?
**A.** 1260 nM

**Q.** For `Nc1ncc(CC[C@H]2C[C@@H](n3ccc4c(N)ncnc43)[C@H](O)[C@@H]2O)cn1` [Compound 69], which IC50 is on record?
**A.** 2000 nM

**Q.** Which IC50 does the source give for `Nc1ncnc2c1ccn2[C@@H]1C[C@H](CCc2cnc(Nc3ccc(Cl)cc3)nc2)[C@@H](O)[C@H]1O` [Compound 70] here?
**A.** 501 nM

**Q.** For `Nc1ncnc2c1ccn2[C@@H]1C[C@H](CCC2=CC3=NC(=O)CN3C=C2)[C@@H](O)[C@H]1O` [Compound 71], which IC50 is on record?
**A.** 100 nM

**Q.** `Nc1ncnc2c1ccn2[C@@H]1C[C@H](CCc2cnc3c(c2)OCCN3)[C@@H](O)[C@H]1O` [Compound 72] was tested. Which IC50 did it give?
**A.** 12.6 nM

**Q.** With `Nc1ncnc2c1ccn2[C@@H]1C[C@H](CCc2cnc3c(c2)CCN3)[C@@H](O)[C@H]1O` [Compound 73] as the molecule, how does the IC50 read?
**A.** 25.1 nM

**Q.** Which IC50 does the source give for `Nc1ncnc2c1ccn2[C@@H]1C[C@H](Cn2ccc3ccncc32)[C@@H](O)[C@H]1O` [Compound 75] here?
**A.** 251 nM
